Reference: publication PMC10051798, “Thiosemicarbazide Derivatives Targeting Human TopoIIα and IDO-1 as Small-Molecule Drug Candidates for Breast Cancer Treatment” (International Journal of Molecular Sciences, 2023)
Values after ≈ are worked out from the molar mass of the structure shown.

Columns and labels:
MDA-MB-231 cells [1] = tested on: MDA-MB-231 cells; set-up: method as in PMID 36345785; details: MTT; cited from earlier work
MCF-7 cells [2] = tested on: MCF-7 cells; set-up: method as in PMID 36345785; details: MTT; cited from earlier work
BCRP in MDA-MB-231 cells = molecular target: T1, BCRP in MDA-MB-231 cells (Homo sapiens, UniProt Q9UNQ0); assay: MDR transporter activity assay, BCRP in MDA-MB-231; format: cell-based; details: 24 h
T1 construct: endogenous in cells; host or cells: MCF-7 and MDA-MB-231 cells
T1 sequence (Q9UNQ0 1-655): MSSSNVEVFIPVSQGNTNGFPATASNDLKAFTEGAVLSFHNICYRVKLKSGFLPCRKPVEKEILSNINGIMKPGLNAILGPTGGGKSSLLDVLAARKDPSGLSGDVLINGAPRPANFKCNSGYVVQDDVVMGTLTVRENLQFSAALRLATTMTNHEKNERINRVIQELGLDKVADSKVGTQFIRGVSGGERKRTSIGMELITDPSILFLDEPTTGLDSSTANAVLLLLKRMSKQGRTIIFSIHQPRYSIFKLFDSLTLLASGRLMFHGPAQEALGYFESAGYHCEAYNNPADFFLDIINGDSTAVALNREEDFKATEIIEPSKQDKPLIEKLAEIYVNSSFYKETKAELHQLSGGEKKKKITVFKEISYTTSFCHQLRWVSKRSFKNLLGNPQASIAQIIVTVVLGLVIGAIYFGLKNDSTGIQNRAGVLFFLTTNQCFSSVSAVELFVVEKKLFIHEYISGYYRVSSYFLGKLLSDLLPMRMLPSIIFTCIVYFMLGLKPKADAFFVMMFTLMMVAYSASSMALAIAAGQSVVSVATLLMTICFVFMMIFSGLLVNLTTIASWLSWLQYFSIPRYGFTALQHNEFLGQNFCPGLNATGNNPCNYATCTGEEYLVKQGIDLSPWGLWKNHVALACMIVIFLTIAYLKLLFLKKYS
Experimental: (§1) An MDR Assay kit (Abcam, Cambridge, UK) was used following the manufacturer’s instructions. MCF-7 and MDA-MB-231 cells were incubated with compounds 1–3 (10 μg/mL and 20 μg/mL). After 24 h of incubation, the test cells were washed twice with 5 mL of PBS by centrifugation at 1200 rpm for 10 min. The supernatants were discarded and the cells were counted using a Scepter 3.0 handheld automated cell counter (Milipore, Burlington, MA, USA). Then, each of the tested samples was divided into three parts and analyzed. Tomeasure the activity of MDR1, MRP1 and BCRP (tubes 1–12), 5 μL of verapamil (MDR1 inhibitor) was added into tubes 1–3, 5 μL of MK-571 (MRP1 inhibitor) was added into tubes 4–6, 5 μL of noviobiocin (BCRP inhibitor) was added into tubes 7–9 and 125 μL DMEM with 1 μL of DMSO was added into tubes 10–12. Then, the samples were incubated at 37 °C for five minutes. After this time, 125 μL of Efflux Green Detection Reagent was added into tubes 1–12 and the samples were incubated for 30 min at 37 °C. After 25 min of incubation, 5 μL of PI was added to each tube. Thereafter, the samples were centrifuged for 10 min at 1200 rpm. The supernatants were discarded and the cells were resuspended in 500 μL of PBS and run on the flow cytometer immediately. Measurements were conducted on a BD FACSCanto II flow cytometer using FACSDiva software (version 6.1.3, BD Biosciences, San Diego, CA, USA). […] The calculations followed these formulas:MAFMDR1= 100 × (FMDR1 − F0)/FMDR1 MAFMRP= 100 × (FMRP − F0)/FMRP MAFBCRP= 100 × (FBCRP − F0)/FBCRP
(§2) • FMDR—MFI with MDR1 inhibitor (verapamil) • FMRP—MFI with MRP inhibitor (MK-571) • FBCRP—MFI with BCRP inhibitor (novobiocin) • F0—MFI without inhibitor
(§3) The theoretical range of the MAF values is between 0 and 100.

[3] = tested on: MRP1/2 in MDA-MB-231 cells; assay: MDR transporter activity assay, MRP in MDA-MB-231; format: cell-based, human; details: 24 h
Experimental: as §1, §2, §3

MCF-7 cells [4] = assay: Annexin V/propidium iodide flow cytometry (apoptosis), MCF-7; format: cell-based, human; details: MCF-7, 24 h, concentration not given
Source text: (§4) Flow cytometry analyses for apoptosis induction by the compounds 1–3 and etoposide wereperformedusing an FITC Annexin V Apoptosis Detection Kit II (BD Pharmingen, San Diego, CA, USA). The rationale of the assay is based on the externalization of phosphatidylserine on the surface of apoptotic cells. In early and late apoptotic cells, the phosphatidylserine translocates into the outer layer of the membrane, which allows annexin V-FITC to attach. Propidium iodide (PI) is, in turn, a fluorescent dye that penetrates into the late apoptotic and necrotic cells with impaired cell membrane integrity. Therefore, using annexin V and PI, it is possible to distinguish four groups of cells: living cells, early apoptotic cells, late apoptotic cells and necrotic cells. MCF-7 and MDA-MB-231 cells were incubated with 10 and 20 µg/mL of compounds 1–3 and etoposide (reference drug) for 24 h. After incubation, the cells were dyed with FITC-labeled annexin V and PI. The analysis was performed on a BD FACS Canto II flow cytometer using FACSDiva software (version 6.1.3, BD Biosciences Systems, San Diego, CA, USA). The equipment was calibrated with BD Cytometer Setup and Tracking Beads (BDBiosciences, San Diego, CA, USA).

MDA-MB-231 cells [5] = assay: Annexin V/propidium iodide flow cytometry (apoptosis), MDA-MB-231; format: cell-based, human; details: MDA-MB-231, 24 h, concentration not given
Source text: as §4

MAF BCRP (BCRP in MDA-MB-231 cells; MDA-MB-231, 20 µg/mL)	MAF BCRP (BCRP in MDA-MB-231 cells; MDA-MB-231, 10 µg/mL)	Structure (SMILES)	IC50 (MDA-MB-231 cells [1])	IC50 MDA-MB-231 (MDA-MB-231 cells [1])	IC50 (MCF-7 cells [2])	IC50 MCF-7 (MCF-7 cells [2])	MAF MRP ([3]; MDA-MB-231, 20 µg/mL)	apoptotic cells (MCF-7 cells [4])	apoptotic cells (MDA-MB-231 cells [5])	MAF MRP ([3]; MDA-MB-231, 10 µg/mL)
< 20		O=C(NNC(=S)Nc1ccc(/N=N/c2ccccc2)cc1)c1ccccc1[N+](=O)[O-] [Compound 3]	24.9 ± 1.74 µM	10.47 ± 0.73 µg/mL (≈ 24.9 µM)	18.2 ± 1.36 µM	7.67 ± 0.57 µg/mL (≈ 18.2 µM)	< 20	~68%		
1.4	4.9	O=C(Cc1cccc2ccccc12)NNC(=S)Nc1ccc(/N=N/c2ccccc2)cc1 [Compound 2]	17.4 ± 0.93 µM	7.64 ± 0.41 µg/mL (≈ 17.4 µM)	20.9 ± 0.59 µM	9.18 ± 0.26 µg/mL (≈ 20.9 µM)	1.8		70%	7.0
